Entries after “also recorded” stand apart in the source; their conditions may differ. Where two headings read alike, the source gives them in different places.
Assays:
DBT glioma cells = details: mouse
IFN antiviral response = format: cell-based
VVDD [1] = format: cell-based, vaccinia virus
IFN-α = format: cell-based, human
VSV-d51-GFP [2] = test system: VSV-d51-GFP
VSVΔ51-Luc [3] = test system: VSVΔ51-Luc; set-up: species or system CD1 nude mice; details: mouse, in vivo
VSV-d51-GFP [4] = format: cell-based
[5] = test system: VSVΔ51 neutralizing antibody; details: mouse, in vivo
VSVΔ51-Luc [6] = test system: VSVΔ51-Luc; set-up: species or system BALB/c mice; details: mouse, in vivo, 20 mg/kg
PC3 cells = format: cell-based
[7] = test system: IFN antiviral response pathway; format: cell-based
[8] = test system: primary prostate cancer cells; format: cell-based
B16-F10-lacZ = B16-F10-lacZ lung metastasis model; format: in vivo, C57BI6 mice; details: 0.05 mg TSA i.p. daily to day 4 + 10^7 pfu VVdd i.v. twice; lungs day 14; p<0.05 vs PBS, VVdd or TSA single treatments
VVDD [9] = format: cell-based, vaccinia virus; details: TSA 0.156 μM 3 hours pre-treatment
[10] = test system: semliki forest virus (VA7); assay: Semliki forest virus (VA7) spread and titers in glioma cell lines; format: cell-based
VSV-d51-GFP [11] = format: cell-based; details: 24 hours

Compound | VA7-mediated cytotoxicity (cell viability) (DBT glioma cells) | induction of MxA mRNA (IFN antiviral response) | level of IFN-β mRNA (IFN antiviral response) | IFN production (IFN-α ELISA) (IFN-α) | sensitivity of normal tissue to VSV infection (VSV-d51-GFP [2]) | VSV replication (GFP-positive cells, fluorescent microscopy) (VSV-d51-GFP [4]) | VSV-GFP replication (flow cytometry) (normal PBMCs) | JC-1 green fluorescence (mitochondrial membrane potential) (PC3 cells) | activation of caspase 9 (immunoblot) (PC3 cells) | number of Annexin V-positive apoptotic cells (flow cytometry) (PC3 cells) | visible signs of cell death (phase-contrast microscopy) (PC3 cells) | IRF3 phosphorylation [7] | activation of IRF7, ISG56 and RIG-I [7] | VSV replication (GFP, flow cytometry) [8] | other results
CCC(=O)CCCCC[C@@H]1NC(=O)[C@H]2CCCCN2C(=O)[C@H]([C@@H](C)CC)NC(=O)[C@H](Cc2cn(OC)c3ccccc23)NC1=O [Apicidin] | enhance VA7-mediated cytotoxicity | – | – | – | – | – | – | – | – | – | – | – | – | – | –
Nc1ccccc1NC(=O)c1ccc(CNC(=O)OCc2cccnc2)cc1 [MS-275] | – | decreased the induction of MxA mRNA | significantly lower; also recorded: undetectable levels | significantly inhibited IFN production | specific towards cancer cells | allowed effective VSV replication | did not increase VSV-GFP replication | increased JC-1 green fluorescence | significant activation | synergistically enhanced the number of Annexin V-positive apoptotic cells | not able to induce visible signs of cell death | allowed detection of IRF3 phosphorylation and concomitant degradation | inhibited | allowed effective VSV replication | replication of VVDD (VVDD [1]): able to synergize the replication of VVDD in 4T1, B16 and SW620 cells; VSV antigen in tumors (IHC of frozen sections) (VSVΔ51-Luc [3]): more abundant presence of VSV antigen; viral replication in tumor-bearing mice (IVIS) (VSVΔ51-Luc [3]; ip): more robust viral replication; VSV replication in SW620 tumors (VSVΔ51-Luc [3]; iv): enhancing effect; VSV neutralizing antibody production [5]: Inhibit; VSV-G specific antibody production (miniblot) [5]: Inhibit; viral replication (IVIS) (VSVΔ51-Luc [6]): more robust and persistent viral replication; VSV in spleen and lungs (24 hours): sensitive/permissive to VSV; VSV in spleen and lungs (72 hours): started to clear out; loss of total weight (mouse, in vivo): approximately 15%; survival of mice (mouse, in vivo): all of the mice survived; VSV biodistribution in major organs (mouse, in vivo, iv): comparable results of viral spread and replication in major organs
CC(/C=C/C(=O)NO)=C\[C@@H](C)C(=O)c1ccc(N(C)C)cc1 [Trichostatin A] | – | – | – | – | – | – | – | – | – | – | – | – | – | – | number of lung metastases (B16-F10-lacZ): Reduces the Number of Metastases; VVdd spread (GFP photomicrographs) (VVDD [9]; MOI 0.1, 48 h): Increases; VVdd titers (pfu/ml) (VVDD [9]; MOI 0.1, 72 h): Increases
z-VAD-fmk | – | – | – | – | – | – | – | – | – | – | – | – | – | – | activation of apoptosis by VSV+MS-275 or VSV+SAHA (Annexin V) (PC3 cells): abrogated activation of apoptosis
O=C(CCCCCCC(=O)Nc1ccccc1)NO [SAHA, suberoylanilide hydroxamic acid] | enhance VA7-mediated cytotoxicity | decreased the induction of MxA mRNA | significantly lower; also recorded: undetectable levels | significantly inhibited IFN production | specific towards cancer cells | allowed effective VSV replication | did not increase VSV-GFP replication | increased JC-1 green fluorescence | significant activation | synergistically enhanced the number of Annexin V-positive apoptotic cells | not able to induce visible signs of cell death | allowed detection of IRF3 phosphorylation and concomitant degradation | inhibited | allowed effective VSV replication | VA7 viral titers (pfu/ml) ([10]; SAHA 5 μM or Apicidin 1 μM 1 hour pre-treatment, MOI 0.01, DBT, CT2A, U251 cells, vs DMSO): enhanced the viral titers; Semliki forest virus spread (GFP photomicrographs) ([10]; SAHA 5 μM or Apicidin 1 μM, DBT cells, MOI 0.01, 30 hours): Enhance
IFN-α | – | – | – | – | – | – | – | – | – | – | – | – | – | – | cell permissiveness to viral infection (GFP expression) (VSV-d51-GFP [11]): decrease cell permissiveness to viral infection
